Measured values from patent US5221667A, “Renin inhibiting peptides having an α-heteroatom amino acid at the P3 position” (Warner-Lambert Company, priority 1990, dated 1993).

Biological target: T1, renin (Homo sapiens, UniProt P00797)
T1 sequence (P00797 67-406): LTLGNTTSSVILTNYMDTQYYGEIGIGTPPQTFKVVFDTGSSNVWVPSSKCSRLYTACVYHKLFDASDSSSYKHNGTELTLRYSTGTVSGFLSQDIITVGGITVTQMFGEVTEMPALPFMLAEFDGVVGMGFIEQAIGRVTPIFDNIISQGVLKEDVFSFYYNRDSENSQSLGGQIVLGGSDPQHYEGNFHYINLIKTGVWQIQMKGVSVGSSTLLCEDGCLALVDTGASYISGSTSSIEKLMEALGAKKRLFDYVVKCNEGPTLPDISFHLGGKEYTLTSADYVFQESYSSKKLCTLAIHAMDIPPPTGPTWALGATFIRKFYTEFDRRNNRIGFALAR
Test: in vitro renin inhibitory activity, radioimmunoassay for angiotensin I
Type: biochemical
Conditions: for inhibition at 0.01 µM: at 10^-8 molar concentration of test compound, read-out: In Vitro Activity, percent inhibition at 10^-8; for IC50: renin incubated two hours at 37° with angiotensinogen, values marked * are IC50, read-out: In Vitro Activity, IC50 (molar concentration causing 50% inhibition of renin activity)
Experimental: The effectiveness of the aforementioned compounds is determined by a test for in vitro renin inhibitory activity. This activity is determined by a standard radioimmunoassay for angiotensin I. In this assay the enzyme, renin, incubated for two hours at 37° in the presence of a substrate, angiotensinogen, generates the product, angiotensin I. Test compounds are added to the incubation mixture. Relative activity is reported as the percent inhibition at the specified molar concentration or as the IC50, which is the molar concentration of test compound causing a 50% inhibition of the renin activity.

For CC(C)CC(=O)NC(SC(C)C)C(=O)N[C@@H](Cc1c[nH]cn1)C(=O)N[C@@H](CC1CCCCC1)[C@@H](O)[C@@H](O)CC(C)C (single isomer, unassigned) [IVA-NHCH(SCH(CH3)2)CO--HIS--CAD (Isomer A), IVA-NHCH(SCH(CH3)2)CO-HIS-CAD (Isomer A)], which inhibition at 0.01 µM is on record?
The inhibition at 0.01 µM was 10.5%.

With CC[C@H](C)CNC(=O)C[C@H](O)[C@H](CC(C)C)NC(=O)[C@H](CC(C)C)NC(=O)C(NC(=O)CC(C)C)Sc1ccccc1 (single isomer, unassigned) [IVA-NHCH(SPh)CO--LEU--STA--MBA (Isomer A), IVA-NHCH(SPh)-CO-LEU-STA-MBA] as the compound, how does the IC50 read?
The IC50 was 140 nM.

With CC[C@H](C)CNC(=O)C[C@H](O)[C@H](CC(C)C)NC(=O)[C@H](CC(C)C)NC(=O)C(NC(=O)CC(C)C)Sc1ccccc1 (single isomer, unassigned) [IVA-NHCH(SPh)CO--LEU--STA--MBA (Mixture of diastereomers), IVA-NHCH(SPh)-CO-LEU-STA-MBA] as the compound, how does the IC50 read?
The IC50 was 190 nM.

With CC[C@H](C)CNC(=O)C[C@H](O)[C@H](CC(C)C)NC(=O)[C@H](CC(C)C)NC(=O)C(NC(=O)OC(C)(C)C)SC(C)C (some centres unmarked) [BOC--NHCH(SCH(CH3)2)CO--LEU--STA--MBA, BOC-NHCH(SCH-(CH3)2)CO-LEU-STA-MBA] as the compound, how does the inhibition at 1 µM (at 10^-6 molar concentration of test compound, read-out: In Vitro Activity, percent inhibition at 10^-6) read?
Its inhibition at 1 µM is 23%.

How did the inhibition at 0.01 µM turn out when CC(C)CC(=O)NC(C(=O)N[C@@H](Cc1c[nH]cn1)C(=O)N[C@@H](CC1CCCCC1)[C@@H](O)[C@@H](O)CC(C)C)S(=O)(=O)C(C)C (some centres unmarked) [IVA-NHCH(SO2 CH(CH3)2)CO--HIS--CAD, IVA-NHCH(SO2 CH(CH3)2)CO-HIS-CAD] was run?
Its inhibition at 0.01 µM is 8.2%.

With CC(C)CC(=O)NC(Sc1ccccc1)C(=O)N[C@@H](Cc1c[nH]cn1)C(=O)N[C@@H](CC1CCCCC1)[C@@H](O)[C@@H](O)CC(C)C (some centres unmarked) [IVA-NHCH(SPh)CO--HIS--CAD, IVA-NHCH(SPh)CO-HIS-CAD] as the compound, how does the IC50 read?
The IC50 was 1.5 nM.

For “IVA-NHCH(N(CH3)Ph)CO-HIS-CAD [IVA-NHCH(N(CH3)Ph)CO--HIS--CAD]”, which IC50 is on record?
The IC50 was 3.5 nM.

Which IC50 does the source give for “IVA-NHCH(NHPh)CO-HIS-CAD [IVA-NHCH(NHPh)CO--HIS--CAD]” here?
The IC50 was 13 nM.

“IVA-NHCH(NHPh)CO-LEU-STA-MBA [IVA-NHCH(NHPh)CO--LEU--STA--MBA]” was tested. Which “In Vitro Activity, percent inhibition at 10^-6” value (at 10^-6 molar concentration of test compound) did it give?
Its value is 24%.

How did the IC50 turn out when “IVA-NHCH-(OPh)CO-HIS-CAD [IVA-NHCH(OPh)CO--HIS--CAD]” was run?
Its IC50 is 3000 nM.

How did the IC50 turn out when “IVA-NHCH-(SCH(CH3)2)CO-HIS-CAD (Isomer B) [IVA-NHCH(SCH(CH3)2)CO--HIS--CAD (Isomer B)]” was run?
Its IC50 is 5.7 nM.
